Reference: article PMC4912613, “A broad analysis of resistance development in the malaria parasite” (Nature Communications, 2016)
pEC50: −log10 of the molar value. Like-named read-outs stand apart in the source and are kept apart here.

Tests used:
[1] = system: GNF156R (PfCARL L830V, S1076I and M81I, parent Dd2); experiment: Cross-resistance EC50 assay, GNF156R; type: cell-based; settings: Plasmodium falciparum, SYBR green 72 hour assay, asynchronized parasites, 96-well or 1536-well format
From the text: (§1) To evaluate potential overlapping activity against known antimalarial drug targets, we performed dose-response studies with each compound against our assembled set of drug-resistant lines and their corresponding parents, in an asexual blood stage proliferation assay (Table 1). Comparisons were made to the drug-sensitive strain 3D7 when a parent was unavailable (TM90C2A, W2 and Dd2). As laboratories conducted EC50 assays with different strains and protocols, all comparisons were made between assays from the same laboratory and under the same assay conditions. Compounds displaying >5-fold EC50 shifts relative to the parent or sensitive strain were flagged as having potentially non-novel targets. Average fold shifts per strain ranged from 0.82 to 2.34, with a median of 1.23 indicating there was not common resistance to any one resistant clone. No resistance patterns were observed when classifying the compounds based on chemical structure, but this was not surprising given the diversity of compounds chosen. On the other hand, given that these confirmed compounds were derived from larger unconfirmed hit lists to which some filtration criteria may have been applied (for example, elimination of obvious dihydrofolate reductase inhibitors[32]), some[10][11][12][13] pre-existing bias may exist in the set. […]
(§2) Alternatively, a SYBR Green-based proliferation approach was used for the 72-h assay, as previously described. Briefly, a culture of either synchronized or asynchronous parasitized RBCs (0.3% parasitemia and 4% haematocrit) in screening medium (identical to supplemented medium above except no serum was added) was exposed to serial drug dilutions. Plates were incubated at 37 °C and gassed with 93% N2, 4% CO2 and 3% O2 for 72 h. Following incubation, 10 × SYBR Green I (Invitrogen; supplied in 10,000 × concentration) in lysis buffer ([…], 5 mM EDTA, 0.16% Saponin wt per vol and 1.6% Triton X vol per vol) was added to the wells and the plates were incubated overnight at room temperature before plate reading. EC50 assays were repeated three times, taking the average EC50 value from each assay set, and removing any outliers using a single iteration of Grubbs' test, eliminating values with z-scores above the critical z-value (α=0.05). The raw EC50 values for synchronized parasites assayed in a 384-well format are listed in Supplementary Data 4. The raw EC50 values for asynchronous parasites assayed in a 96 or 1536-well format are listed in Supplementary Data 5.
(§3) EC50 values for each strain were compared with those of the corresponding parent strain to determine fold-shift changes and identify resistance. To minimize the cause variance between assays, all comparisons were conducted between strains assayed under identical conditions. A one-way ANOVA followed by a Dunnet's post-test was conducted in GraphPad Prism to identify significant changes between the parent and resistant strain.

[2] = system: ATQ-R4 (cytb M133I and L144S, parent 3D7); experiment: Cross-resistance EC50 assay, ATQ-R4; type: cell-based, Plasmodium falciparum; settings: for EC50: Plasmodium falciparum, 3D7, SYBR green 72 hour assay, asynchronized parasites, 96-well or 1536-well format, ATQ-R4; for EC50 fold-shift, ATQ-R4 vs parent: resistance, parent 3D7
From the text: as §1, §2, §3

3D7 = experiment: Cross-resistance EC50 assay, 3D7 parent / sensitive strain; type: cell-based; settings: Plasmodium falciparum; for EC50: read-out: 3D7 (PARENT) EC50 (µM) Average EC50
From the text: (§4) Multidrug resistance alleles, including mutations in P. falciparum chloroquine resistance transporter (pfcrt) and P. falciparum multi-drug resistance transporter 1 (pfmdr1) are very common in field isolates. Therefore, we sought to assess the degree to which pre-existing resistance alleles would contribute to a loss of potency for this diverse collection of small molecule compounds. Fifteen clones derived from three main parent lines were chosen to maximize diversity in mutated pathways and genetic backgrounds, thus representing the variety of resistance seen in the field: 3D7 (ref. [23]), W2 (ref. [24]) or Dd2 (ref. [25]). The 3D7 line originates from the clone of a Netherlands clinical isolate strain[23][26] and is generally considered to be drug sensitive, though it does convey resistance to sulfadoxine. Conversely, W2 (ref. [24], [27]) and Dd2 (ref. [25]) are multi-drug-resistant lines originating from the Indochina III/CDC isolate, which contain point mutations in pfcrt as well as amplifications in pfmdr1 and GTP cyclohydrolase.
To evaluate potential overlapping activity against known antimalarial drug targets, we performed dose-response studies with each compound against our assembled set of drug-resistant lines and their corresponding parents, in an asexual blood stage proliferation assay (Table 1). Comparisons were made to the drug-sensitive strain 3D7 when a parent was unavailable (TM90C2A, W2 and Dd2). As laboratories conducted EC50 assays with different strains and protocols, all comparisons were made between assays from the same laboratory and under the same assay conditions. Compounds displaying >5-fold EC50 shifts relative to the parent or sensitive strain were flagged as having potentially non-novel targets. Average fold shifts per strain ranged from 0.82 to 2.34, with a median of 1.23 indicating there was not common resistance to any one resistant clone. No resistance patterns were observed when classifying the compounds based on chemical structure, but this was not surprising given the diversity of compounds chosen. On the other hand, given that these confirmed compounds were derived from larger unconfirmed hit lists to which some filtration criteria may have been applied (for example, elimination of obvious dihydrofolate reductase inhibitors[32]), some[10][11][12][13] pre-existing bias may exist in the set.
The 48-h assay was carried out in a 96-well format following standard methods using the ^3H-hypoxanthine incorporation assay. The raw EC50 values corresponding to this assay can be found in Supplementary Data 3. Briefly, this assay relies on the parasite incorporation of labelled hypoxanthine that is proportional to P. falciparum growth. A culture of parasitized RBCs (0.5% parasitemia with a percentage of ring stage higher than 70% of total parasitemia, 2.0% haematocrit) in RPMI-1640, […] and 5 μM hypoxanthine was exposed to drug serial dilutions. Plates were incubated for 24 h at 37 °C, 5% CO2, 5% O2 and 90% N2. After 24 h of incubation, ^3H-hypoxanthine was added and plates were incubated for an additional 24-h period. After that, parasites were harvested on a glass fibre filter using a TOMTEC Cell Harvester 96. Filters were dried and melt-on scintillator sheets were used to determine the incorporation of ^3H-hypoxanthine. Radioactivity was measured using a microbeta counter. Data were normalized using the incorporation of the positive (parasitized RBCs without drug) and negative (same culture with artesunate at 2 μM) controls. All assays were conducted in triplicate using three independently grown cultures, and EC50 values were determined using the XLfit add-in module for Excel (version 2.3.1) from Grafit (version 5.3.1.3), where parameter h is the assay hill slope, x is the compound concentration and y is the inhibition of growth effect. The XLfit equation is: […]
Alternatively, a SYBR Green-based proliferation approach was used for the 72-h assay, as previously described. […]

Dd2 = experiment: Cross-resistance EC50 assay, Dd2 parent; type: cell-based, Plasmodium falciparum; settings: Plasmodium falciparum; for EC50: read-out: Dd2 (PARENT) EC50 (µM) Average EC50
From the text: as §4, §1, §2, §3

[3] = SYBR green 72 hour assay, asynchronized parasites, 96-well or 1536-well format, 3D7 parent
[4] = SYBR green 72 hour assay, synchronized parasites, 384-well format, strain 3D7 (parent), read-out: 3D7 (PARENT) Average EC50
[5] = hypoxanthine 48-hour assay, synchronized parasites, 96-well format, strain 3D7 (parent), read-out: 3D7 (PARENT) Average EC50
[6] = hypoxanthine 48-hour assay, synchronized parasites, 96-well format, strain 3D7-C9-WT (parent of PfATP4 Mut3), read-out: 3D7-C9-WT (PARENT) Average EC50
[7] = DD2, 72 h, read-out: Dd2 (PARENT) Average EC50

SMILES | EC50 [1] | EC50 [2] | EC50 fold-shift, ATQ-R4 vs parent [2] | EC50 (3D7; [3]) | pEC50 (3D7; [4]) | pEC50 (3D7; [5]) | pEC50 (3D7; [6]) | pEC50 (Dd2; [7]) | EC50 (Dd2; DD2, 72 h) | pEC50 (Dd2; DD2, read-out: EC50, Dd2 parent) | pEC50 (3D7; SYBR green 72 hour assay, synchronized parasites, 384-well format, 3D7 parent, read-out: 3D7 (PARENT) Average EC50) | pEC50 (3D7; 3D7, 48 h, read-out: 3D7 (PARENT) Average EC50) | pEC50 (3D7; 3D7, 48 h, read-out: 3D7-C9-WT (PARENT) Average EC50) | pEC50 (3D7; 3D7, 72 h, read-out: 3D7 (PARENT) Average EC50) | EC50 (3D7; 3D7, 72 h)
Cc1c(C)n(Cc2ccc(F)cc2)c2ccc(C(=O)NCc3ccco3)cc12 [MMV008149] | 0.798 µM | 3.88 µM | Statistically significant resistance | 1.06 µM | 6.45 | 6.11 | 5.56 | 7.05 | 1.63 µM | 6.31 |  |  |  |  | 
Cc1ccc(S(=O)(=O)n2cc(-c3ccnc(N)c3)c3cc(Br)cnc32)cc1 [MMV024114] | 2.9 µM | 1.99 µM |  | 1.17 µM | 6.38 | 6.58 | 6.66 | 6.12 | 1.64 µM |  |  |  |  |  | 
COc1ccc(NC(=O)N2CCCCN3[C@H](CN)[C@H](c4ccc(C#Cc5ccccc5)cc4)[C@@H]3C2)cc1 [BRD1095] | 0.00166 µM | 0.003 µM |  | 0.00215 µM |  |  |  | 7.89 | 0.00257 µM |  | 7.66 |  |  |  | 
CCN(CC)S(=O)(=O)c1ccc(-c2csc(Nc3ccc(C)c(C)c3)n2)cc1 [MMV009108] | 1.5 µM | 2.44 µM |  | 0.851 µM | 6.12 | 6.03 | 5.95 | 6.43 | 0.929 µM |  |  |  |  |  | 
COCCNCC(O)Cn1c2ccc(Cl)cc2c2cc(Cl)ccc21 (stereo not shown) [MMV019017] | 0.336 µM | 1.24 µM |  | 0.537 µM | 6.12 | 6.21 |  | 6.32 | 0.998 µM |  |  |  |  |  | 
Cc1cc(Nc2ccc(OCc3ccccc3)cc2)nc2cc(O)ccc12 [MMV007181] | 0.163 µM | 0.109 µM |  | 0.086 µM | 6.82 | 6.46 | 6.74 | 6.73 | 0.19 µM |  |  |  |  |  | 
CNCc1ccc2nc(-c3coc(Cc4cc(Cl)ccc4OCC(C)C)n3)[nH]c2c1.Cl.Cl [MMV026596] | 0.414 µM | 0.303 µM |  | 0.304 µM | 6.49 | 6.42 | 6.33 | 6.46 | 0.158 µM |  |  |  |  |  | 
COc1ccccc1CNC(=O)CCn1c(=O)[nH]c2ccsc2c1=O [MMV019066] | 0.008 µM | 0.057 µM | 16 × | 0.007 µM | 6.77 | 5.78 | 5.66 | 7.27 | 0.00951 µM |  |  |  |  |  | 
Cc1ccc(Cn2c(N3CCC(C(=O)NCc4cccs4)CC3)nc3ccccc32)cc1 [MMV007564] | 1.62 µM | 1.05 µM |  | 0.867 µM | 6.17 | 6.24 | 6.32 | 6.41 | 0.342 µM |  |  |  |  |  | 
COc1cc(-c2nc(-c3ccccc3)c(-c3ccccc3)[nH]2)ccc1OCCN(C)C [MMV027496] | 1.8 µM | 0.305 µM |  | 0.241 µM | 6.93 | 6.95 | 7.08 | 6.52 | 0.74 µM |  |  |  |  |  | 
O=C(Nc1ccccc1O)c1ccc(Oc2cccc(C(=O)Nc3ccccc3O)c2)cc1 [MMV665888] | 0.67 µM | 1.05 µM |  | 0.295 µM | 6.21 | 5.93 |  | 6.21 | 0.66 µM |  |  |  |  |  | 
CCCOCc1cc(CN2CCN(c3cccc(Cl)c3)CC2)c(O)c2ncccc12 [MMV000787] | 1.63 µM | 1.44 µM |  | 0.645 µM | 6.20 | 5.84 | 6.03 | 6.23 | 1.59 µM |  |  |  |  |  | 
Cc1nc2ccc3ccc(CNc4ccc(C(=O)CC(CCC(=O)O)C(=O)O)cc4)cc3c2c(=O)[nH]1.Cl (stereo not shown) [MMV027634] | 0.229 µM | 0.194 µM |  | 0.148 µM | 7.54 | 7.60 | 7.38 | 7.46 | 0.124 µM |  |  |  |  |  | 
c1cncc(-c2cc(N3CCC(CN4CCOCC4)CC3)nc(-c3ccncc3)n2)c1 [MMV668399] | 0.827 µM | 0.332 µM |  | 0.322 µM | 7.05 | 7.09 | 7.14 | 7.06 | 0.984 µM |  |  |  |  |  | 
COc1cc2cc(C(=O)Nc3ccccc3)c(N)nc2cc1OC [MMV006767] | 0.379 µM | 2.73 µM |  | 1.51 µM | 6.12 | 6.02 | 6.13 | 5.80 | 0.215 µM |  |  |  |  |  | 
Cl.c1ccc2c(NCCCCCCNc3c4c(nc5ccccc35)CCCC4)c3c(nc2c1)CCCC3 [MMV019555] | 0.22 µM | 0.08 µM |  |  |  |  |  | 6.63 | 0.241 µM |  |  | 7.06 | 7.03 | 7.21 | 0.065 µM
